Data set [1] can be described thus: Physical characterisation of mRNA-containing LNPs (DLS, NTA, zeta potential). It is filed as physicochemical. The following applies: Fluc mRNA LNPs: compound/DOPE/Cholesterol/DMG-PEG2000 41.44/45.85/10/2.7, lipid:RNA 40:1 (w/w). How it is done: A series of ten multi-component LNP compositions of the present disclosure comprising exemplary compounds of Formula (I) was prepared by combining various percentages of an exemplary compound of Formula (I), the phospholipid DOPE, the structural lipid cholesterol (Chol) and 1,2-dimyristoyl-sn-glycerol methoxypolyethylene glycol (DMG-PEG2000; Avanti Polar Lipids, Alabaster, Alabama, USA).
Individual 25 mg/ml stock solutions were prepared by solubilizing the lipids in 200-proof HPLC-grade ethanol and stock solutions were stored at −80° C. until formulated. At the time of formulation, the lipid stock solutions were briefly allowed to equilibrate to room temp and then placed on a hot plate maintained at a temperature range of 50-55° C.
A 1 mg/mi solution of the desired mRNA to be incorporated into the LNPs was added to 150 mM sodium acetate buffer (pH 5.2) to form a stock solution and kept on ice. The lipid phase was mixed with the aqueous m RNA phase inside a microfluidic chip using a NanoAssemblr® instrument (Precision Nanosystems, Vancouver, BC, Canada) according to the manufacturer's instructions to form LNP compositions comprising encapsulated mRNAs.
The resultant mRNA LNP compositions were then transferred to a Repligen Float-A-Lyzer dialysis device—having a molecular weight cut off (MWCO) of 8-10 kDa (Spectrum Chemical Mfg. Corp, CA, USA) and processed by dialysis against phosphate buffered saline (PBS) (dialysate:dialysis buffer volume at least 1:200 v/v), pH 7.4 overnight at 4° C. (or alternatively room temperature for at least 4 hours), to remove the 25% ethanol and achieve a complete buffer exchange. In some experiments the LNPs were further concentrated by in an Amicon® Ultra-4 centrifugal filter unit, MWCO-30 kDa (Millipore Sigma, USA) spun at ˜4100×g in an ultracentrifuge. The mRNA LNPs were then stored at 4° C. until further use.
A series of multicomponent LNP compositions comprising one of COMPOUNDS 1-8 described in Example 1 and the mRNA encoding flue was prepared according to Example 2 and the physical characteristics of the resulting LNPs were analyzed.
In a separate experiment, LNP compositions of the present disclosure comprising mRNA encoding firefly luciferase (hereafter “Fluc”; TriLink) and COMPOUNDS 1-8 were prepared as described in Example 2 by combining one of COMPOUNDS 1-8, the phospholipid DOPE, the structural lipid cholesterol (Chol) and 1,2-dimyristoyl-sn-glycerol methoxypolyethylene glycol (DMG-PEG2000) in the percentages presented in Table 8: […]

Data set [2] deals with Resting T-cells. In words: LNP delivery of eGFP mRNA to resting T-cells. To be noted: eGFP mRNA LNPs 0.4144:0.4585:0.1:0.027, lipid:nucleic acid 40:1, 0.5 ug mRNA per well, 24 hrs. It is filed as cell-based. The method, then:
In one experiment, LNPs of the present disclosure comprising one of COMPOUNDS 1-4, DOPE, Cholesterol and DMG-PEG2000 at a molar ratio of 0.4144:0.4585:0.1:0.027 and further comprising Cleancap mRNA encoding eGFP were formed on a NanoAssemblr® (Precision Nanosystems). […] Resting T-cells were treated with varying amounts of the four LNP composition and at 24 hrs, the cells were analyzed to determine the percentage of cells that were viable and that expressed […]. The results of the analysis are shown in Table 12 for a dose of 0.5 ug mRNA per well.

Data set [3] has as its system Resting T-cells. As to the kind of experiment: LNP delivery of nano-pB-EF1a-GFP DNA to resting T-cells. It is filed as cell-based. The following applies: nano-pB-EF1a-GFP DNA LNPs 0.38:0.5:0.1:0.02, lipid:nucleic acid 45:1, 24 hr. The source says: The experiments described in this example used CD4/CD8 positive T-cells isolated from a leukapheresis product from a healthy donor.

Data set [4] concerns BALB/C mice. As to the kind of experiment: In vivo intramuscular LNP delivery of fLuciferase mRNA, bioluminescent imaging. The following applies: for Ave flux (p/s) / Avg IM flux n = 2: intramuscular 20 μg fLuciferase mRNA; for Ave flux (p/s): LNP COMPOUND 2/DOPE/Cholesterol/DMG-PEG2000 32.411/32.411/32.411/2.77; for Avg IM flux n = 2: right hind limb, BLI at 4 hr, LNP compound/DOPE/Cholesterol/DMG-PEG2000 33.5/32.0/33.5/1.0, lipid:RNA 25:1. How it is done:
Adult female BALB/C mice (n=2/group) were intramuscularly administered in the right hind limb of each mouse 20 μg of 5′-CleanCap-fLuciferase mRNA (TriLink Biotech) formulated with LNP composition comprising COMPOUND 2 as prepared according to Example 2 in the following percentages shown in Table 16:
The location and extent of luciferase expression in treated and untreated mice were determined at 4 hr and 24 hr by bioluminescent imaging (BLI) of anesthetized mice using an IVIS Lumina in vivo imaging system (Perkin Elmer) according to the manufacturer's instructions. Briefly, mice were anesthetized using isoflurane in oxygen, and placed supine on a heated stage. Mice were then administered D-luciferin (Perkin-Elmer #122799) IP, and BLI was performed.
In another experiment, adult female BALB/C mice (n=2/group) were intramuscularly administered in the right hind limb of each mouse 20 μg of 5′-CleanCap-fLuciferase mRNA (TriLink Biotech) formulated with LNP composition comprising one of COMPOUNDS 3-8 as prepared according to Example 3 in the following percentages shown in Table 18:
The location and extent of luciferase expression in treated and untreated mice were determined at 4 hr by bioluminescent imaging (BLI) of anesthetized mice as described above.

Data set [5] is described as follows: Physical characterisation of DNA-containing LNPs (DLS, NTA, zeta potential). It counts as physicochemical. To be noted: nano-pB-EF1a-GFP DNA LNPs: compound/DOPE/Cholesterol/DMG-PEG2000 38.0/50.0/10.0/2.0, lipid:DNA 45:1 (w/w). The method, then: LNP compositions of the present disclosure comprising DNA, a nanoplasmid encoding a piggyBac transposon, wherein the piggyBac transposon comprised GFP under control of the EF1a promoter (herein referred to as the nano-pB-EF1a-GFP), and one of COMPOUNDS 1-8 were prepared as described in Example 3 by combining one of COMPOUNDS 1-8, the phospholipid DOPE, the structural lipid cholesterol (Chol) and 1,2-dimyristoyl-sn-glycerol methoxypolyethylene glycol (DMG-PEG2000) in the following percentages in Table 20: […]

Data set [6] deals with HEK293T cells. As to the kind of experiment: In vitro LNP delivery of eGFP mRNA to adherent cells. It counts as cell-based. To be noted: 0.125 μg eGFP mRNA per well, 24 hr, flow cytometry, LNP 41.44/45.85/10.0/2.7, lipid:RNA 40:1. The method, then: HEK293T cells were seeded in 96 well plates and grown to 70% confluence in DMEM+10% FBS] under a 5% CO2 atmosphere at 37° C. A 0.125 μg amount of 5′-CleanCap-eGFP mRNA (TriLink Biotech) formulated with LNP compositions comprising COMPOUNDS 1-4 as prepared in Example 3 at the following percentages in Table 10 was added to each well.
After incubating for 24 hr, cells were imaged for GFP expression with a Leica fluorescence microscope and then detached from 96 well plate to quantitate expression by flow cytometry.

Data set [7] relates to TF1a cells. As to the kind of experiment: Genetic modification of suspension cell line by LNP-delivered nanoplasmid transposon. It counts as cell-based. To be noted: TF1a cells stably expressing SPB transposase; nanoplasmid transposon LNP 0.38:0.5:0.1:0.02; Day 6, flow cytometry. How it is done:
In general, TF1a cells (a suspension cell line) were engineered to stably express the SPB transposase. Cell were plated at 5e5/ml. LNP comprising a nanoplasmid transposon coding for eGFP under control of the EF1a […] were added to each well at a concentration of […] (0.125 ug total) of DNA per well. Medium was exchanged and cells were split by spinning cells down in a v-bottom plate and resuspending cells in fresh RPMI+10% FBS+2 ug/ml Puromycin media on D4 post LNP addition). Day=6, cells were assessed for GFP expression by epifluorescence microscopy and flow cytometry.
For example, LNP compositions comprising COMPOUND 3 were prepared comprising COMPOUND 3, DOPE, Cholesterol and DMG-PEG2000 at a molar ratio of 0.38:0.5:0.1:0.02 and the nanoplasmid transposon and cells were assessed at Day 6 for GFP expression by epifluorescence microscopy and flow cytometry.
Background: Flow cytometry measures light scatter and fluorescence of single cells or particles in a stream.

Data set [8] has as its system HEK293T cells. As to the kind of experiment: In vitro LNP delivery of nano-pB-EF1a-GFP DNA to adherent cells. It counts as cell-based. To be noted: 0.5 μg nano-pB-EF1a-GFP DNA per well in LNPs, flow cytometry. How it is done: HEK293T cells were seeded in 96 well plates and grown to 70% confluence in [DMEM+10% FBS] under a 5% CO2 atmosphere at 37° C. A 0.5 μg amount of nano-pB-EF1a-GFP DNA formulated with LNP compositions comprising COMPOUNDS 1, 3 & 4 as prepared in Examples 3 and 8 was added to each well. Following treatment with the LNPs, the cells were imaged for GFP+expression with a Leica fluorescence microscope and then detached from 96 well plate to quantitate expression by flow cytometry.

Turning to `CC(C)C(CCC1CCC(C(=O)NCCCCCCNC(=O)C2CCC(CCC(SCCN(C)C)C(C)C)C(SCCN(C)C)C2)CC1SCCN(C)C)SCCN(C)C` (stereo not shown) [Compound 2], the “Diameter (DLS; nm)” value in data set [1] was determined as 79.6 nm; in data set [5], 80.6 nm. Besides, the “Diameter (NTA; nm)” value in data set [1] was 113.8 nm; in data set [5], 105.0 nm. In addition, the PDI is listed as 0.259 in data set [1] and 0.221 in data set [5]. Besides, the “Total Particles/ml” value in data set [1] was found to be 2.97E+10 Particles/ml. Moreover, the figures for the “Zeta Potential (mV)” value in data set [1] and in data set [5] were −0.19 mV and −0.02 mV, respectively. For the same compound, the “% Viable GFP+” value in data set [2] turned out to be 5.5%; in data set [3] it was 4.4%; in data set [6], 17.5%. Besides, the “Ave flux (p/s)” value in data set [4] (Lipid:RNA 25:1, 4 hr) is 4.58E+6 p/s; in data set [4] (Lipid:RNA 25:1, 24 hr), 3.53E+6 p/s; in data set [4] (Lipid:RNA 50:1, 4 hr), 9.67E+5 p/s; in data set [4] (Lipid:RNA 50:1, 24 hr), 8.09E+5 p/s. Besides, the “location of luciferase expression (BLI)” value in data set [4] (intramuscular 20 μg fLuciferase mRNA in right hind limb) is recorded as “detected by BLI predominantly at the injection site”.

Consider `CC(C)C(CCC(C)C(CCC1CCC(C(=O)NCCCCCCCCCCCCNC(=O)C2CCC(CCC(SCCN(C)C)C(C)CCC(SCCN(C)C)C(C)C)C(SCCN(C)C)C2)CC1SCCN(C)C)SCCN(C)C)SCCN(C)C` (stereo not shown) [Compound 3], for which the “% Viable GFP+” value amounted to 10.9% in data set [2], 97.1% in data set [8], 18.0% in data set [3] and 19.4% in data set [6]. For the same compound, in data set [7], the “cells positive for GFP expression” value is roughly 9.8%. Besides, the “Avg IM flux n = 2” value in data set [4] amounted to 5.8E+6.

For the compound `CC(C)C(CCC1CCC(C(=O)NCCCCCCCCCCCCNC(=O)C2CCC(CCC(SCCN(C)C)C(C)C)C(SCCN(C)C)C2)CC1SCCN(C)C)SCCN(C)C` (stereo not shown) [Compound 4], the “% Viable GFP+” value in data set [2] is listed as 2.9%; in data set [8], roughly 17.1%; in data set [3], 2.3%; in data set [6], 90.1%. Moreover, the “Avg IM flux n = 2” value in data set [4] stood at 2.07E+6.
